According to EP0006752A1, “Compositions for the treatment of chronic trypanosomiasis infections” (Merck & Co., Inc., priority 1978, dated 1980):
Where “and” joins values, the source holds several entries; their conditions need not be identical. Equal values may be shown once.

Experiments:
T. brucei TREU 667/1 [1] = assay: Early (3 day old) T. brucei TREU 667/1 infection in mice, cure after i.p. treatment; assay type: in vivo, Trypanosoma brucei; details: for Number Cured Out of Total Treated: CFLP mice infected for 3 days
Excerpt: The mice used were adult CFLP females approximately 25-30 g. and maintained on standard laboratory diet throughout the experiments. Two stabilates were used throughout the experiments, the main one was T. brucei TREU 667/1 originally obtained from Dr. A. R. Gray, Edinburgh, and the other T. brucei LUMP 1001 obtained from Professor […], London. These were cryogenically maintained as previously described in Jennings, […], Parasitol. 75, 143-153 (1977). Each mouse was inoculated intraperitoneally with 1 x 10^4 trypanosomes prepared from the stabilate in phosphate glucose saline pH 8.0. Chemotherapy commenced at various times post inoculation. Each mouse was weighed and the requisite dose of drug administered intraperitoneally in a volume of 0.1 ml./5g. body weight. Compounds I, II and III were used in crystalline powder forms. These were first ground finely in an agate mortar and then suspended in physiological saline for intraperitoneal injection. A drop of detergent (Tween 80) was added to the suspensions to facilitate wetting. Care was taken during dispensing that the suspensions were properly dispersed, and because of some slight unavoidable settlement in the syringe, the mice were always injected at random and usually not more than 3 mice were injected from the one syringe full of drug suspension. As the regimen was usually 4 daily doses at the respective drug concentration, any errors were evenly distributed. […] All were prepared according to the manufacturer's instructions and were injected intraperitoneally. The mice were examined for parasites on the day treatment was initiated (usually day 3 or 21 of infection) by examination of a drop of tail blood under x40 objective (wet film technique). […] The three compounds, I, II and III were used at various dose levels against an early infection of T. brucei TREU 667/1 in CFLP. The dose regimen was initiated 3 days after infection and the intraperitoneal injections of drug suspension were given daily.

T. brucei TREU 667/1 [2] = assay: Chronic (21 day old) T. brucei TREU 667/1 infection in mice, cure/relapse after i.p. treatment; assay type: in vivo, Trypanosoma brucei; details: for Number Cured Out of Total Treated: mice infected for 21 days; for time after treatment until signs of relapse: some of the mice treated with the prophylactic drugs (pretreatment experiments of Table 3)
Excerpt: The mice used were adult CFLP females approximately 25-30 g. and maintained on standard laboratory diet throughout the experiments.
Two stabilates were used throughout the experiments, the main one was T. brucei TREU 667/1 originally obtained from Dr. A. R. Gray, Edinburgh, and the other T. brucei LUMP 1001 obtained from Professor W. H. R. Lumsden, London. These were cryogenically maintained as previously described in Jennings, Whitelaw & Urquhart, Parasitol. 75, 143-153 (1977).
Each mouse was inoculated intraperitoneally with 1 x 10^4 trypanosomes prepared from the stabilate in phosphate glucose saline pH 8.0. Chemotherapy commenced at various times post inoculation. Each mouse was weighed and the requisite dose of drug administered intraperitoneally in a volume of 0.1 ml./5g. body weight.
Compounds I, II and III were used in crystalline powder forms. These were first ground finely in an agate mortar and then suspended in physiological saline for intraperitoneal injection. A drop of detergent (Tween 80) was added to the suspensions to facilitate wetting. Care was taken during dispensing that the suspensions were properly dispersed, and because of some slight unavoidable settlement in the syringe, the mice were always injected at random and usually not more than 3 mice were injected from the one syringe full of drug suspension. As the regimen was usually 4 daily doses at the respective drug concentration, any errors were evenly distributed.
The other established drugs used were Berenil (diminazene aceturate, obtained from Fabwerke, Hoechst, Germany, 40 mg./kg. unless otherwise specified), Ethidium (homidium bromide 7.5 mg./kg.) and Prothidium (pyrithidium bromide 10 mg./kg. obtained from Boots Pure Drug Co., England) and Samorin (isometamidium 2 mg./kg. obtained from May & Baker Ltd.). […]
The mice were examined for parasites on the day treatment was initiated (usually day 3 or 21 of infection) by examination of a drop of tail blood under x40 objective (wet film technique). Subsequent to treatment they were examined every 2 days for 6 days and thereafter once per week until relapse occurred or until the experiment was terminated (in some instances 6-7 months).
The initial work with Berenil was carried out using the dose rate of 40 mg./kg. which was the dose of drug used in all the original work on chronic infections.
In addition, groups of mice were given Berenil and the Compound III simultaneously, or one injection of Berenil followed by one injection of Compound III in order to compress the treatment into the minimum number of injections.

T. brucei LUMP 1001 [3] = assay: Chronic (21 day old) T. brucei LUMP 1001 infection in mice, cure/relapse after i.p. treatment; assay type: in vivo, Trypanosoma brucei
Excerpt: The mice used were adult CFLP females approximately 25-30 g. and maintained on standard laboratory diet throughout the experiments. Two stabilates were used throughout the experiments, the main one was T. brucei TREU 667/1 originally obtained from Dr. A. R. Gray, Edinburgh, and the other T. brucei LUMP 1001 obtained from Professor […], London. These were cryogenically maintained as previously described in Jennings, […], Parasitol. 75, 143-153 (1977). Each mouse was inoculated intraperitoneally with 1 x 10^4 trypanosomes prepared from the stabilate in phosphate glucose saline pH 8.0. Chemotherapy commenced at various times post inoculation. Each mouse was weighed and the requisite dose of drug administered intraperitoneally in a volume of 0.1 ml./5g. body weight. Compounds I, II and III were used in crystalline powder forms. These were first ground finely in an agate mortar and then suspended in physiological saline for intraperitoneal injection. A drop of detergent (Tween 80) was added to the suspensions to facilitate wetting. Care was taken during dispensing that the suspensions were properly dispersed, and because of some slight unavoidable settlement in the syringe, the mice were always injected at random and usually not more than 3 mice were injected from the one syringe full of drug suspension. As the regimen was usually 4 daily doses at the respective drug concentration, any errors were evenly distributed. […] All were prepared according to the manufacturer's instructions and were injected intraperitoneally. The mice were examined for parasites on the day treatment was initiated (usually day 3 or 21 of infection) by examination of a drop of tail blood under x40 objective (wet film technique). […] It was known that T. brucei LUMP 1001 relapsed after treatment of a 21 day old infection Jennings, […], Parasitol. 75, 143-153 (1977), and indeed tended to relapse earlier after treatment with Berenil at 40 mg./kg. than any of the other stabilates tested (approximately 20 days). The original experiment using 40 mg./kg. Berenil as pre-treatment followed by Compound III was disappointing, as only 3 out of a total of 27 mice appeared to be cured by the various dose regimens. The experiment was therefore repeated increasing the pretreatment dose of Berenil to 60 mg./kg. and 80 mg./kg., the latter being given as two doses of 40 mg./kg. on consecutive days to avoid the possibility of deaths due to the toxicity of Berenil at that dose level in mice. This pretreatment was followed by administration of Compound III at 4 doses of 80 mg./kg. and in both instances where the increased Berenil dose level (60 mg./kg. and 80 mg./kg.) was used, satisfactory permanent cures were accomplished, whereas in the respective controls all of the mice relapsed.

T. brucei LUMP 1001 [4] = details: 21 day old infection; Berenil at 40 mg./kg.; cited from earlier work
[5] = Berenil 40 mg./kg. day 21, no further treatment
[6] = 4 x 5 mg./kg. daily i.p., cure = no parasites in blood for at least 90 days
[7] = 4 x 20 mg./kg. daily i.p., cure = no parasites in blood for at least 90 days
[8] = single drug 4 x 20 mg./kg. daily i.p.

In the case of N=C(N)c1ccc(N=NNc2ccc(C(=N)N)cc2)cc1 [Berenil, diminazene aceturate], the “permanent cure of early infections” value (T. brucei TREU 667/1 [1]; early infection, Berenil 5 mg./kg.) is reported as “can be permanently cured”, the “time for which all circulating trypanosomes are cleared from the bloodstream” value (T. brucei TREU 667/1 [2]; 5 mg./kg. Berenil) is reported as “up to 20 days” and the “outcome after treatment” value (T. brucei TREU 667/1 [2]; 21 day old infection, 160 mg./kg. Berenil given subcutaneously) is reported as “relapsed”. For the same molecule, the “No. Cured Out of Total Treated” value (T. brucei TREU 667/1 [2]; Berenil 5 mg./kg. day 21, no further treatment) was 0/10, the “No. Cured Out of Total Treated” value (T. brucei TREU 667/1 [2]; Berenil 5 mg./kg. day 21, then Berenil 5 mg./kg. day 24) was 0/10 and the “No. Cured Out of Total Treated” value (T. brucei TREU 667/1 [2]; Berenil 20 mg./kg. day 21, no further treatment) was 0/10. For the same molecule, the “No. Cured Out of Total Treated” value (T. brucei TREU 667/1 [2]; [5]) was 1/10 and 1/9, the cure rate (T. brucei TREU 667/1 [2]; Berenil (40 mg./kg.) given alone, in the particular experiment with the simultaneous group) was 60% and the “outcome after repeated treatment” value (T. brucei TREU 667/1 [2]; infected 21 days, Berenil alone 40 mg./kg., retreated every 30 days for a total of 5 months, a proportion of mice) was “eventually become parasitaemic again”. The “No. Cured Out of Total Treated” value (T. brucei LUMP 1001 [3]; [5]) was 0/10 and 0/9, the “No. Cured Out of Total Treated” value (T. brucei LUMP 1001 [3]; Berenil 60 mg./kg. day 21, no further treatment) was 0/8 and the “No. Cured Out of Total Treated” value (T. brucei LUMP 1001 [3]; Berenil 80 mg./kg., given as 2 x 40 mg./kg. on day 21 and day 24, no further treatment) was 0/8. The “time to relapse after treatment” value (T. brucei LUMP 1001 [4]) was “approximately 20 days”.
For Cn1c([N+](=O)[O-])cnc1COC(N)=O [Compound I, 1-methyl-5-nitroimidazol-2-ylmethylcarbamate], the “Number Cured Out of Total Treated” value (T. brucei TREU 667/1 [1]; [6]) was 0/8 and the “Number Cured Out of Total Treated” value (T. brucei TREU 667/1 [1]; [7]) was 0/8.
In the case of Cn1c([N+](=O)[O-])cnc1C1=NOC2CCCCC12 (stereo not drawn) [Compound II, 3'-(1-methyl-5-nitroimidazol-2-yl)-4'5'-tetramethylene-Δ^2-isoxazoline], the cure rate (T. brucei TREU 667/1 [1]; 3-day old infection, 4 doses of 80 mg./kg.) is reported as 100%, the “Number Cured Out of Total Treated” value (T. brucei TREU 667/1 [1]; [6]) is reported as 0/8 and the “Number Cured Out of Total Treated” value (T. brucei TREU 667/1 [1]; [7]) is reported as 2/8. The “Number Cured Out of Total Treated” value (T. brucei TREU 667/1 [1]; 4 x 80 mg./kg. daily i.p., separate experiment) was 10/10 and the “Number Cured Out of Total Treated” value (T. brucei TREU 667/1 [2]; [8]) was 0/9.
In the case of Cn1c([N+](=O)[O-])cnc1C1=NOC2CCCCCCC12 (stereo not drawn) [Compound III], the cure (T. brucei TREU 667/1 [1]; 3-day old infection, 4 doses at 20 mg./kg.) is reported as 100%, the “Number Cured Out of Total Treated” value (T. brucei TREU 667/1 [1]; [6]) is reported as 2/8 and the “Number Cured Out of Total Treated” value (T. brucei TREU 667/1 [1]; [7]) is reported as 8/8. For the same molecule, the “period after treatment until the last of the mice relapsed” value (T. brucei TREU 667/1 [2]; established (21 day) infection, 4 doses at 80 mg./kg.) was 42 days, the “Number Cured Out of Total Treated” value (T. brucei TREU 667/1 [2]; [8]) was 0/9 and 0/10 and 0/8 and the “Number Cured Out of Total Treated” value (T. brucei TREU 667/1 [2]; single drug 4 x 80 mg./kg. daily i.p.) was 0/10. For the same molecule, the “No. Cured Out of Total Treated” value (T. brucei TREU 667/1 [2]; no pretreatment, III 4 x 20 mg./kg. commencing day 24) was 0/8 and the “No. Cured Out of Total Treated” value (T. brucei LUMP 1001 [3]; no pretreatment, III 4 x 80 mg./kg. commencing day 24) was 0/10.
In the case of CC[n+]1c(-c2ccccc2)c2cc(N)ccc2c2ccc(N)cc21 [Ethidium, homidium bromide], the “No. Cured Out of Total Treated” value (T. brucei TREU 667/1 [2]; Ethidium 7.5 mg./kg. day 21, no further treatment) is reported as 0/10.
With Cc1cc(Nc2ccc3c(c2)c(-c2ccc(N)cc2)[n+](C)c2cc(N)ccc32)nc(N)[n+]1C.[Br-].[Br-] [Prothidium, pyrithidium bromide] the “No. Cured Out of Total Treated” value (T. brucei TREU 667/1 [2]; Prothidium 10.0 mg./kg. day 21, no further treatment) was 0/8 and the “time after treatment until signs of relapse” value (T. brucei TREU 667/1 [2]) was 6-7 months.
For CC[n+]1c(-c2ccccc2)c2cc(N/N=N/c3cccc(C(=N)N)c3)ccc2c2ccc(N)cc21 [Samorin, isometamidium], the “No. Cured Out of Total Treated” value (T. brucei TREU 667/1 [2]; Samorin 2.0 mg./kg. day 21, no further treatment) was 0/10 and the “time after treatment until signs of relapse” value (T. brucei TREU 667/1 [2]) was 6-7 months.
